# Measured values from patent publication US20260286316A1, “METHOD OF PRODUCTION OF MODIFIED PHAGE AND METHOD OF TREATMENT USING SAME” (priority 2022, published 2026).
# Where two headings read alike, the source gives them in different places.
# Experiments:
# [1] = system: S. aureus ATCC51650 and CIs (CI2, CI3, CI4, CI6, CI7, CI8, CI9, and CI11); assay type: cell-based, Staphylococcus aureus
# Method: (§1) Initial screening was performed in 100 μl in 96 well plates, with follow up experiments in 10 mL culture volume. S. aureus strains were grown on 1.5% Tryptone Soya Agar (TSA) at 37° C. overnight. Single colonies were transferred to Tryptone Soya Broth (TSB) to generate a culture with a starting concentration of 5×10^5 CFU/ml. […] Antibiotics were added to the cultures at ½ MIC (according to the pretest MIC of antibiotics) if required. Optical density (OD) readings at 600 nm were recorded at 24 hours to assess the growth of bacteria co-inoculated with phage unless otherwise specified. Uninoculated, fresh media was included as a sterility control.
# A synergistic effect was defined as a statistically significant decrease in optical density (OD) that was larger than the combined decrease in OD of antibiotic and phage only controls.
# S. aureus CI3 [2] = assay: Phage combined with ½ MIC antibiotics on planktonic S. aureus (OD600), CI3; assay type: cell-based, Staphylococcus aureus; conditions: ½ MIC antibiotic, phage MOI=0.2, 24 hours
# Method: as §1
# [3] = system: S. aureus isolates (15 clinical isolates and 2 ATCC strains); assay: Antibiotic sensitivity testing, 17 isolates; assay type: cell-based, Staphylococcus aureus; conditions: of 17 S. aureus isolates
# Method: S. aureus ATCC51650 and ATCC25923 were obtained from the American Type Culture Collection (Manassas, VA, United States of America) and used as reference strains. In addition, a total of 15 S. aureus clinical isolates (CIs) were isolated from the sinonasal cavities of chronic sinusitis (CRS) patients. In each case, S. aureus was cultured by an independent diagnostic laboratory and the antibiotic susceptibility determined by disc diffusion on Mueller-Hinton agar per Clinical and Laboratory Standards Institute (CLSI) recommendations (Adelaide Pathology Partners, Mile End, SA, Australia). Bacteria were isolated on Columbian horse blood agar plates, colistin nalidixic acid plates, or cystine lactose electrolyte-deficient plates (Oxoid Australia Pty Ltd, Thebarton, SA, Australia). Positive cultures were confirmed to be S. aureus using latex agglutination testing.
# (§2) The minimum inhibitory concentration (MIC) of amoxicillin, vancomycin, erythromycin, clindamycin and azithromycin against the S. aureus strains was assessed using the broth microdilution technique as previously described (Wiegand I et al., Nature protocols 3 (2): 163-175, 2008) and breakpoints defined according to CSLI guidelines. Clinical strains resistant to at least one antibiotic in three or more antibiotic categories were defined as multidrug resistant (MDR).
# S. aureus CI3 [4] = assay: Rat rhinosinusitis model, efficacy arm (sinus mucosa CFU, biofilm biomass, histopathology); assay type: in vivo, Sprague Dawley rats
# Text: Rat nasal tissues were fixed in 10% neutral buffered formalin. Tissue samples were then decalcified using 9.5% nitric acid in 1% ethylenediaminetetracetic acid (EDTA), processed to paraffin wax, and 6 μm sections cut and stained with H&E. The samples were examined by a veterinary pathologist blinded to the treatments given.
# An established murine rhinosinusitis model was used with modifications (see YU C-j et al., Chinese Journal of Otorhinolaryngology-Skull Base Surgery 6, 2011; Zhang F et al., Am J Rhinol Allergy 27 (5): 361-366, 2013; and Jin M et al., Ear Arch Oto-Rhino-L 268 (6): 857-861, 2011). […] The sponges were placed at approximately 15 mm from the anterior nostril, located in the ostiomeatal complex. The rats were monitored for a nine-day period to allow for mucosal biofilms to form, and, on the tenth day, the sponges were removed. A two-day recovery was given to the rat before treatments begun. […] Treatments were administered intranasally twice a day for 14 days. Rats were monitored for weight and respiratory alterations (respiration rate; nasal discharge, hyperaemia or pruritus; and sneezing) during treatment, and, 14 days post-treatment initiation, the rats were humanely sacrificed. Their sinus mucosa was harvested for CFU counting, biofilm quantification, histopathology, and phage enumeration. […]
# The quantification of biofilm biomass on sinus mucosa was determined using an established protocol (Singhal D et al., editors. Quantitative analysis of in vivo mucosal bacterial biofilms. International Forum of Allergy & Rhinology; 2012: Wiley Online Library (27). Briefly, the frontal sinus mucosa was harvested and placed into Dulbecco's Modified Eagle's Medium (Life Technologies, Carlsbad, CA, United States of America) on ice. One piece of mucosa from each frontal sinus was stained with a LIVE/DEAD® BacLight Bacterial Viability Kit (Life Technologies Australia). The stained mucosa was then examined at 20× magnification using a confocal laser scanning microscope (Zeiss LSM700, Carl Zeiss AG, Oberkochen, Germany). […]
# S. aureus CI3 [5] = assay: Antibiotic sensitivity of the isolate selected for in vivo experiments; assay type: cell-based, Staphylococcus aureus
# Method: as §2
# A fresh culture of CI3 on 1.5% TSA plates was prepared two days before inoculation. A single colony was resuspended in 0.9% saline (ca. 2 ml) to turbidity reading 0.5 McFarland Units and then a 1 in 100 dilution in TSB was cultured overnight one day before the in vivo experiment. CI3 pellets were harvested and resuspended in fresh TSB to reach 2.5×10^9 Colony Forming Units (CFU)/ml.
smiles,measurement,setting,value
CC1(C)S[C@@H]2[C@H](NC(=O)[C@H](N)c3ccc(O)cc3)C(=O)N2[C@H]1C(=O)O [amoxicillin],additive or synergistic effect of the antibiotic combined with phage,"[1]; ½ MIC antibiotic with J-Sa36, Sa83 or Sa87 (MOI=0.2)",None of the combinations of phage with either of the cell wall actives (amoxicillin and vancomycin) showed any significant additive or synergistic effects
CC[C@H]1OC(=O)[C@H](C)[C@@H](O[C@H]2C[C@@](C)(OC)[C@@H](O)[C@H](C)O2)[C@H](C)[C@@H](O[C@@H]2O[C@H](C)C[C@H](N(C)C)[C@H]2O)[C@](C)(O)C[C@@H](C)C(=O)[C@H](C)[C@@H](O)[C@]1(C)O [erythromycin],"synergistic effects with phage J-Sa36, Sa83 and Sa87 on bacterial viability (OD600)",S. aureus CI3 [2],synergistic effects
same,isolates exhibiting resistance to the antibiotic,[3],three
CC[C@H]1OC(=O)[C@H](C)[C@@H](O[C@H]2C[C@@](C)(OC)[C@@H](O)[C@H](C)O2)[C@H](C)[C@@H](O[C@@H]2O[C@H](C)C[C@H](N(C)C)[C@H]2O)[C@](C)(O)C[C@@H](C)CN(C)[C@H](C)[C@@H](O)[C@]1(C)O [azithromycin],"synergistic effects with phage J-Sa36, Sa83 and Sa87 on bacterial viability (OD600)",S. aureus CI3 [2],synergistic effects
same,isolates exhibiting resistance to the antibiotic,[3],two
same,"biofilm biomass on sinus mucosa compared to control, single agent",S. aureus CI3 [4]; 0.5×10^10 PFU/ml Sa87 or ½ MIC antibiotic alone,significant increase in biomass
same,"histopathology of the maxilloturbinates, single agent","S. aureus CI3 [4]; Sa87, ½ MIC clindamycin or ½ MIC azithromycin only",evidence of cilial denudation and surface epithelial erosion
same,antibiotic sensitivity of the isolate,S. aureus CI3 [5],sensitive
CN[C@H](CC(C)C)C(=O)N[C@H]1C(=O)N[C@@H](CC(N)=O)C(=O)N[C@H]2C(=O)N[C@H]3C(=O)N[C@H](C(=O)N[C@H](C(=O)O)c4cc(O)cc(O)c4-c4cc3ccc4O)[C@H](O)c3ccc(c(Cl)c3)Oc3cc2cc(c3O[C@@H]2O[C@H](CO)[C@@H](O)[C@H](O)[C@H]2O[C@H]2C[C@](C)(N)[C@H](O)[C@H](C)O2)Oc2ccc(cc2Cl)[C@H]1O [vancomycin],additive or synergistic effect of the antibiotic combined with phage,[1],None of the combinations of phage with either of the cell wall actives (amoxicillin and vancomycin) showed any significant additive or synergistic effects
